# Assay results as given in PubChem BioAssay (NCI).
#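 All cell lines were grown in 96-well plates and treated with compound for 48 hours. At the TGI there is no net growth.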
# Key:
# Experiment in all cases: NCI tumour cell line growth inhibition, 48 h
# [1] = tested on: SK-MEL-28 melanoma
# [2] = tested on: UACC-257 melanoma
# [3] = tested on: HCT-116 colon
# [4] = tested on: HOP-92 NSCLC
# [5] = tested on: 786-0 renal
# [6] = tested on: PC-3 prostate
# [7] = tested on: M14 melanoma
# [8] = tested on: RPMI-8226 leukemia
# [9] = tested on: SW-620 colon
# [10] = tested on: U251 CNS
# [11] = tested on: K-562 leukemia
# [12] = tested on: IGROV1 ovarian
# [13] = tested on: HOP-62 NSCLC
# [14] = tested on: SNB-19 CNS
# [15] = tested on: HT29 colon
# [16] = tested on: NCI-H226 lung
# [17] = tested on: NCI-H522 lung
# [18] = tested on: BT-549 breast
# [19] = tested on: HS 578T breast
SMILES,TGI [1],TGI [2],TGI [3],TGI [4],TGI [5],TGI [6],TGI [7],TGI [8],TGI [9],TGI [10],TGI [11],TGI [12],TGI [13],TGI [14],TGI [15],TGI [16],TGI [17],TGI [18],TGI [19]
Cc1[nH]c(=O)nc2c1C(=O)N(C(C)C)C(NC(C)C)S2 (stereo not drawn),> 100 µM,> 100 µM,> 100 µM,> 100 µM,> 100 µM,> 100 µM,> 100 µM,> 100 µM,> 100 µM,> 100 µM,> 100 µM,> 100 µM,> 100 µM,> 100 µM,> 100 µM,> 100 µM,> 100 µM,,
C[N+](C)([O-])Cc1cccc(NC(=O)c2ccc(C(=O)Nc3cccc(C[N+](C)(C)[O-])c3)cc2)c1,> 100 µM,> 100 µM,> 100 µM,> 100 µM,> 100 µM,> 100 µM,> 100 µM,> 100 µM,> 100 µM,> 100 µM,> 100 µM,> 100 µM,> 100 µM,> 100 µM,> 100 µM,> 100 µM,> 100 µM,> 100 µM,
COc1ccc(C2Oc3cc(OC)c(O)cc3[C@@H]2C)cc1 (stereo partly drawn),> 100 µM,> 100 µM,25.9 µM,72.1 µM,31.3 µM,,51.2 µM,58.2 µM,40.2 µM,> 100 µM,> 100 µM,,> 100 µM,19.5 µM,> 100 µM,92.6 µM,38 µM,,
CCOC(=O)C1(C/C=C\CBr)CCCCCCC1=O (stereo not drawn),> 100 µM,> 100 µM,> 100 µM,,> 100 µM,> 100 µM,> 100 µM,,> 100 µM,> 100 µM,,> 100 µM,> 100 µM,> 100 µM,> 100 µM,> 100 µM,> 100 µM,> 100 µM,> 100 µM
CC1(C)CC(=O)C2=C(C1)OC1=C(CC(C)(C)CC1=O)C2c1ccccc1Cl (stereo not drawn),> 100 µM,> 100 µM,> 100 µM,> 100 µM,> 100 µM,> 100 µM,> 100 µM,> 100 µM,> 100 µM,> 100 µM,> 100 µM,> 100 µM,> 100 µM,> 100 µM,> 100 µM,> 100 µM,> 100 µM,,> 100 µM
Nc1nc(NC(=O)C2=NS(=O)(=O)c3cc(S(N)(=O)=O)c(Cl)cc3N2)n[nH]1,> 100 µM,> 100 µM,> 100 µM,> 100 µM,> 100 µM,,> 100 µM,> 100 µM,> 100 µM,> 100 µM,> 100 µM,> 100 µM,> 100 µM,> 100 µM,> 100 µM,> 100 µM,> 100 µM,,
C[N+]12C=CC=C1C(N1CCCC1)c1sc(-c3ccc(Cl)cc3)cc12 (stereo not drawn),31.6 µM,28.9 µM,29.6 µM,,28.8 µM,29.9 µM,30.9 µM,57.7 µM,29.9 µM,24.5 µM,,39 µM,31.3 µM,26.8 µM,34.3 µM,35.3 µM,27 µM,22 µM,50.9 µM
COc1cc(/C=C/C(=O)C(C)(C)C)cc(OC)c1OC,> 100 µM,> 100 µM,> 100 µM,> 100 µM,> 100 µM,,> 100 µM,> 100 µM,81.2 µM,> 100 µM,> 100 µM,,> 100 µM,> 100 µM,> 100 µM,97.9 µM,> 100 µM,,
NC(N)=NS(=O)(=O)c1ccc(NC(=O)c2c3ccccc3nc3ccccc23)cc1,> 100 µM,> 100 µM,> 100 µM,> 100 µM,> 100 µM,> 100 µM,> 100 µM,> 100 µM,> 100 µM,> 100 µM,,> 100 µM,> 100 µM,> 100 µM,> 100 µM,> 100 µM,> 100 µM,> 100 µM,
CCC(c1ccc(N(C)C)cc1)C1NC(=S)NC1=O (stereo not drawn),> 100 µM,> 100 µM,> 100 µM,> 100 µM,> 100 µM,,> 100 µM,> 100 µM,> 100 µM,> 100 µM,59.6 µM,> 100 µM,,> 100 µM,> 100 µM,> 100 µM,> 100 µM,,> 100 µM
CC(=O)NC(Cc1ccccc1)C(=S)N1CCCC1 (stereo not drawn),> 100 µM,> 100 µM,> 100 µM,> 100 µM,> 100 µM,,> 100 µM,> 100 µM,> 100 µM,> 100 µM,> 100 µM,> 100 µM,> 100 µM,> 100 µM,> 100 µM,> 100 µM,> 100 µM,,
COC(=O)c1cc(CNCCc2c[nH]c3ccccc23)on1,> 100 µM,> 100 µM,> 100 µM,> 100 µM,> 94.6 µM,> 100 µM,> 100 µM,> 100 µM,> 100 µM,> 100 µM,> 100 µM,> 100 µM,> 100 µM,> 100 µM,> 100 µM,> 100 µM,73.5 µM,,> 100 µM
Cc1ccc(CCNC(=S)SCC(NC(=O)CCC(N)C(=O)O)C(=O)NCC(=O)O)cc1 (stereo not drawn),7.63 µM,4.47 µM,6.26 µM,2.8 µM,1.6 µM,,2.56 µM,1.43 µM,3.01 µM,4.06 µM,2.5 µM,4.77 µM,8.08 µM,4.98 µM,7.01 µM,4.47 µM,1.45 µM,,
CCN(CC)CC(C(=O)Nc1c(C)cccc1C)/C(C)=N/NC(N)=S (stereo not drawn),> 100 µM,> 100 µM,> 100 µM,> 100 µM,> 100 µM,,> 100 µM,> 100 µM,> 100 µM,> 100 µM,> 100 µM,> 100 µM,> 100 µM,,> 100 µM,> 100 µM,> 100 µM,,
COc1cc2c(oc(=O)c3c4oc([Si](C)(C)C)cc4cc(OC)c23)c2cccc(O)c12,> 100 µM,> 100 µM,> 100 µM,> 100 µM,> 100 µM,,> 100 µM,> 100 µM,> 100 µM,> 100 µM,> 100 µM,> 100 µM,> 100 µM,> 100 µM,> 100 µM,> 100 µM,> 100 µM,,
CC1=CC(=O)C[C@]2(C)[C@@H](O)CC(C(C)CO)C[C@@H]12 (stereo partly drawn),> 100 µM,> 100 µM,> 100 µM,> 100 µM,> 100 µM,,> 100 µM,,> 100 µM,> 100 µM,,> 100 µM,> 100 µM,> 100 µM,> 100 µM,> 100 µM,,> 100 µM,
COc1ccccc1C1C(Cl)C(=O)N1NC(=O)Cc1ccccc1 (stereo not drawn),> 100 µM,> 100 µM,> 100 µM,,> 100 µM,,> 100 µM,> 100 µM,> 100 µM,> 100 µM,> 100 µM,> 100 µM,> 100 µM,> 100 µM,> 100 µM,> 100 µM,> 100 µM,,
CC(C)CCC[C@@H](C)[C@H]1CC[C@H]2[C@@H]3CC=C4CC(OCCCCN(O)CCCSC5OC(CO)C(O)C(O)C5O)CC[C@]4(C)[C@H]3CC[C@]12C (stereo partly drawn),> 100 µM,> 100 µM,> 100 µM,> 100 µM,32.5 µM,,56.3 µM,> 100 µM,49.4 µM,75.1 µM,> 100 µM,50 µM,> 100 µM,> 100 µM,> 100 µM,,49.6 µM,,
c1ccc(C2(c3cc4ccccc4[nH]3)OCCO2)cc1,> 100 µM,99.8 µM,> 100 µM,> 100 µM,> 100 µM,> 100 µM,> 100 µM,> 100 µM,> 100 µM,> 100 µM,> 100 µM,> 100 µM,,> 100 µM,> 100 µM,> 100 µM,,> 100 µM,
COCN1C(=O)[C@@H]2C[C@@H](OC/C=C/CBr)CN2C(=O)c2ccccc21,45.4 µM,37.6 µM,42.7 µM,,53.9 µM,51.8 µM,42.9 µM,,45.6 µM,74.8 µM,,26.5 µM,54.6 µM,67.2 µM,82.1 µM,29.9 µM,25.9 µM,> 100 µM,> 100 µM
C[N+](C)(C)CC(=O)N/N=C(\C(=O)Nc1ccc(Cl)cc1)C1C(=O)N(c2ccccc2)N=C1N (stereo not drawn),> 100 µM,> 100 µM,> 100 µM,> 100 µM,> 100 µM,,> 100 µM,> 100 µM,> 100 µM,> 100 µM,> 100 µM,> 100 µM,> 100 µM,> 100 µM,> 100 µM,,> 100 µM,,
O=c1[nH]c2cccccc-2c1-c1nc2ccccc2[nH]1,70.5 µM,> 100 µM,> 100 µM,93.6 µM,41 µM,,> 100 µM,> 100 µM,> 100 µM,68 µM,> 100 µM,> 100 µM,94.8 µM,88 µM,> 100 µM,35.6 µM,42.3 µM,,
CC(C)Oc1c(O)c2c3c(oc(=O)n3C=CC2c2ccccc2F)c1OC(C)C (stereo not drawn),> 100 µM,> 100 µM,66.7 µM,> 100 µM,> 100 µM,40.1 µM,65.4 µM,51.9 µM,> 100 µM,> 100 µM,> 100 µM,> 100 µM,> 100 µM,> 100 µM,54.1 µM,> 100 µM,> 100 µM,,> 100 µM
O=C(N/N=C/c1cc(-c2ccccc2Cl)c(-c2ccccc2Cl)o1)c1ccncc1,> 100 µM,> 100 µM,> 100 µM,> 100 µM,> 100 µM,,> 100 µM,65.9 µM,> 100 µM,,,> 100 µM,> 100 µM,> 100 µM,> 100 µM,> 100 µM,> 100 µM,,
CCCCCCCCCCCCCCCCCc1nc(C#N)c(N)o1,> 100 µM,> 100 µM,> 100 µM,> 100 µM,> 100 µM,> 100 µM,> 100 µM,52 µM,> 100 µM,> 100 µM,> 100 µM,36.4 µM,> 100 µM,> 100 µM,> 100 µM,,,,85.4 µM
Cc1ccc(-c2c(C#N)c(O)n(NS(=O)(=O)c3ccccc3)c(=O)c2C#N)cc1,> 100 µM,> 100 µM,> 100 µM,> 100 µM,> 100 µM,> 100 µM,> 100 µM,,> 100 µM,> 100 µM,> 100 µM,> 100 µM,> 100 µM,> 100 µM,> 100 µM,> 100 µM,> 100 µM,> 100 µM,
CC(C)(C)C(=O)C(C#N)C(=O)C(C)(C)C,> 100 µM,> 100 µM,> 100 µM,> 100 µM,> 100 µM,> 100 µM,> 100 µM,> 100 µM,> 100 µM,> 100 µM,> 100 µM,> 100 µM,> 100 µM,> 100 µM,> 100 µM,> 100 µM,> 100 µM,,> 100 µM
COC(=O)C1(C(=O)OC)CC2=C(S(=O)(=O)c3ccccc3)C[C@@H](C#N)[C@H]2C1,> 100 µM,> 100 µM,> 100 µM,> 100 µM,> 100 µM,> 100 µM,> 100 µM,,> 100 µM,> 100 µM,> 100 µM,> 100 µM,> 100 µM,> 100 µM,> 100 µM,> 100 µM,> 100 µM,> 100 µM,
